Columns and labels:
[1] = test system: human prostate carcinoma PC3 cells; assay: Cyto-fluorometric cell cycle analysis, PC3; type: cell-based; parameters: key to APOPTOSIS: % of cells (cell cycle phase percentages)
Experimental: To evaluate the effect of the compound according to the invention, on various phases of the cell cycle, cyto-fluorometric cell cycle analyses were performed.
On the third day of treatment 500.000 cells were sampled, centrifuged at 180×g for 5 minutes, washed twice in calcium and magnesium free PBS. The cells (1×10^6/ml of fixative) were fixed for at least 1 hour in a fixation mixture comprised of acetone/methanol 1:4 v/v maintained at −20° C. and 50% of calcium and magnesium free PBS; then the cells were centrifuged, washed in calcium and magnesium free PBS, and again centrifuged and washed. The cellular precipitate was incubated for 30 minutes in the dark at room temperature with 200 μl of […] (100 μg/ml) and 200 μl of RNAse (150 KU/mg).
The samples with filtered through nylon filters (60-80 μm diameter) and analysed by cyto-fluorimeter FACScan (Becton Dickinson), acquiring 20000 events/sample, at an excitation wavelength of 488 nm and emission wavelength of 620 nm. The analysis of the percentages of the cell cycle phases was performed using a dedicated software package, Modfit v. 2.0 (Becton Dickinson).
For the cell cycle analysis of prostate carcinoma cells PC3, the cells were seeded in plates at a density of 500000 cells/ml in RPMI medium. After treatment with compound ST1926 for 24 hours, cells were analysed as described above.

[2] = test system: BMEC cells; assay: Endothelial BMEC cells chemotaxis (Boyden chamber); type: cell-based, bovine; conditions: 50 and 25 μM
Experimental: The capacity of ST1879 to inhibit cellular migration through the polycarbonate filter in the direction of the chemoattractant factor, was quantitatively evaluated by counting the number of cells present on the lower side of the filter. The percentages of migration reported in table 8 were calculated according to the formula: (treated−control/control)×100.

[3] = test system: M109 murine lung carcinoma cells; assay: Cytotoxicity in combination with TRAIL, M109; type: cell-based; conditions: M109, 72 hours, value >1 synergism (FIG. 2)
Experimental: FIG. 2 is a graph showing the interaction between ST1926 and TRAIL in M109 murine lung carcinoma cells at different concentrations of TRAIL.
A study of cytotoxicity of ST1926 in combination with TRAIL was performed in two different tumor cell lines such as M109 murine lung carcinoma and A2780/Dx multidrug-resistant human ovarian carcinoma. Cells were maintained in RPMI 1640 medium containing 10% FCS, 1% sodium pyruvate and 1% glutamine.
The cells were seeded in a volume of 250 μl in 96 well plates and incubated for 24 hours at 37° C. The following day, test compound ST 1926 [(2E)-3-[3′-(1-Adamantyl)-4′-hydroxy[1,1′-biphenyl]-4-yl]-2-propenoate/ic acid] or TRAIL were added at increasing concentrations, and the cells were incubated for a further 72 hours at 37° C. in a humidified atmosphere containing 5% CO2. On the 5th day, the supernatant was removed by upturning the plates. 200 μl of PBS and 50 μl of cold, 80% TCA were added. The plates were then left to incubate on ice for at least 1 hour. The TCA was removed by upturning; the plates were washed three times by immersion in distilled water and dried first on paper, then with a jet of hot air. […] The optical density was measured using a Multiskan spectrophotometer at 540 nm.
The interaction between ST1926 and TRAIL was determined by using the analysis of Drewinko et al. (Cancer Biochem. Biophys. 1: 187-195, 1976). […]

[4] = PC3, 0.02 μM, 24 hours of treatment and 0 hours of recovery
[5] = PC3, 0.02 μM, 24 hours of treatment and 24 hours of recovery
[6] = PC3, 0.05 μM, 24 hours of treatment and 0 hours of recovery
[7] = PC3, 0.05 μM, 24 hours of treatment and 24 hours of recovery
[8] = PC3, 0.1 μM, 24 hours of treatment and 0 hours of recovery
[9] = PC3, 0.1 μM, 24 hours of treatment and 24 hours of recovery
[10] = PC3, 0.2 μM, 24 hours of treatment and 24 hours of recovery

Structure (SMILES): O=C(O)/C=C/c1ccc(-c2ccc(O)c(C34CC5CC(CC(C5)C3)C4)c2)cc1 [ST1926, E-4-(3-(1-adamantyl)-4-hydroxyphenyl)cinnamic acid]
- APOPTOSIS [1, 4]: 9
- G0/G1 [1, 4]: 54.0
- G2 + M [1, 4]: 21.8
- S [1, 4]: 24.2
- APOPTOSIS [1, 5]: 13
- G0/G1 [1, 5]: 44.6
- G2 + M [1, 5]: 25.0
- S [1, 5]: 30.4
- APOPTOSIS [1, 6]: 11
- G0/G1 [1, 6]: 55.8
- G2 + M [1, 6]: 20.6
- S [1, 6]: 23.6
- APOPTOSIS [1, 7]: 15
- G0/G1 [1, 7]: 44.9
- G2 + M [1, 7]: 25.6
- S [1, 7]: 29.5
- APOPTOSIS [1, 8]: 10
- G0/G1 [1, 8]: 52.0
- G2 + M [1, 8]: 28.0
- S [1, 8]: 35.4
- APOPTOSIS [1, 9]: 10
- G0/G1 [1, 9]: 45.8
- G2 + M [1, 9]: 28.4
- S [1, 9]: 25.8
- APOPTOSIS ([1]; PC3, 0.2 μM, 24 hours of treatment and 0 hours of recovery): 13.5
- APOPTOSIS [1, 10]: 13
- G0/G1 [1, 10]: 31.8
- G2 + M [1, 10]: 25.0
- S [1, 10]: 43.2
- effect on PC3 cells at the end of treatment (in words) ([1]; PC3, 0.4 μM, 24 hours of treatment): induced apoptosis
- APOPTOSIS ([1]; PC3, 0.4 μM, 24 hours of treatment and 0 hours of recovery): 25
- APOPTOSIS ([1]; PC3, 0.4 μM, 24 hours of treatment and 24 hours of recovery): 26
- chemotaxis of the BMEC cells towards FCS (in words) [2]: inhibition of chemotaxis
- interaction between ST1926 and TRAIL (analysis of Drewinko et al.) [3]: synergic activity

From patent US7449495B2, “Retinoid derivatives with antiangiogenic, antitumoral and proapoptotic activities” (Sigma-Tau Industrie Farmaceutiche Riunite S.p.A., priority 2001, dated 2008)
